The target in one test is CDK5 (Homo sapiens (Human), UniProt Q00535). In words: scanMAX Kinase assay panel. In kind it is binding. Particulars: read-out: % control. Put shortly: (§1)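 Panel: scanMAX. Metric: % control. The 100% anchor is DMSO and the 0% anchor is the positive control.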
Another test has as its target CSNK1E (Homo sapiens (Human), UniProt P49674). In words: scanMAX Kinase assay panel. The settings on record: read-out: % control. Type of test: binding. Put shortly:
as §1

In a further test the target is CLK4 (Homo sapiens (Human), UniProt Q9HAZ1). As to the kind of experiment: scanMAX Kinase assay panel. In kind it is binding. Particulars: read-out: % control. Put shortly:
as §1

The target of another test is GSK3B (Homo sapiens (Human), UniProt P49841). In words: scanMAX Kinase assay panel. Type of test: binding. Particulars: read-out: % control. Put shortly: as §1
In a further test the target is CLK3 (Homo sapiens (Human), UniProt P49761). As to the kind of experiment: scanMAX Kinase assay panel. Type of test: binding. Particulars: read-out: % control. In outline: as §1
In another test the target is DYRK1B (Homo sapiens (Human), UniProt Q9Y463). As to the kind of experiment: scanMAX Kinase assay panel. In kind it is binding. The settings on record: read-out: % control. Put shortly: as §1
Test [1] has as its system 5× FAD mice. In words: Tau phosphorylation (AT180 immunohistochemistry) in Alzheimer's disease animal model. Type of test: in vivo. Particulars: 20 mg/kg i.p. every day for 2 weeks, vs vehicle. The procedure: 2 weeks later, immunohistochemistry was performed using AT180, one of Tau phosphorylation antibodies, and as a result confocal microscope images were obtained. Quantitative analysis with the images was performed using image j software.

Another test relates to mouse pancreatic β-cell. In words: mouse pancreatic β-cell proliferation (Ki-67/insulin staining). Type of test: cell-based. As for the experimental part: It is known that when human β-cells are treated with harmine that inhibits DYRK1A, the proliferation of β-cells is promoted by increasing the transcription factor activity by inhibiting the phosphorylation of NFAT known as a phosphorylation substrate of DYRK1A.
Particularly, pancreatic Langerhans islet tissues were extracted from the mouse at 8 weeks old, followed by culture in RPMI1640 medium supplemented with 10% FCS (fetal calves serum), 5.5 mM glucose and 1% penicillin-streptomycin for 24 hours.
Next, in order to separate β-cells as single cells from the Langerhans islet, cells were washed twice with PBS, followed by centrifugation. The collected cells were left in the medium supplemented with 1 mg/ml of trypsin for 10 minutes at 37° C. The cells were shaken using a pipette every 10 seconds for 5 minutes. Trypsin reaction was terminated by adding RPMI1640 containing 10% FCS (fetal calves serum), 5.5 mM glucose and 1% penicillin-streptomycin, followed by centrifugation to collect single cells.
Then, the single cells were loaded on the laminin-coated cover glass and stabilized for 24 hours. The cells were cultured in the medium containing the compound of the present invention for 72 hours. […] The cells double-stained with Ki-67/insulin were counted under Olympus F-1000 confocal fluorescence microscope to investigate cell proliferation.

Test [2] has as its system 5× FAD mice. As to the kind of experiment: novel object recognition test, long term cognitive function. Particulars: 20 mg/kg i.p. every day for 2 weeks, vs non-treated group. In kind it is in vivo. As for the experimental part:
Novel object recognition test is an experiment to test the memory of perception of an object. Mice were let to see two identical objects. After a certain period of time had passed (several hours˜a week), the mice were let to see a novel object together with the object previously presented. Then, how much those mice were interested in the novel object and studied it was evaluated, leading to the evaluation of long term memory of the previous object.
Two objects which were the same in the shape and in the size (F, F) were placed in a specific corner of the open field box (42×42×42 cm) made that the outside is not invisible from the inside, and a test mouse was started from the center of the box. Then, the number and time of the test mouse touching those two objects were recorded for 5 minutes (Acquisition). 24 hours later, one of those two objects was replaced with a new one (F, N). The number and time of access to the original object (F) and the new object (N) were recorded and digitized (Discrimination). Preference for the object (p) was calculated by (time to approach to a certain object)/(total time to approach to two objects). FIG. 10(a) presents the schematic diagram of novel object recognition test, and FIG. 10(b) presents the calculation results.

Test [3] has as its system 5× FAD mice. As to the kind of experiment: Y-maze behavioral test, short term cognitive function. In kind it is in vivo. Particulars: 20 mg/kg i.p. every day for 2 weeks, vs non-treated group. As for the experimental part:
Then, the mice were placed in Y-maze composed of three arms abutting 120°, and each arm was lifted sequentially for five minutes to calculate the number of alternation triplets to see how well the mice remembered where they visited.
The equipment used for Y-maze test is composed of three arms. The length of each arm was 42 cm, the width thereof was 3 cm and the height was 12 cm. The angle of contact between the three arms is 120°. All experimental devices were made of black polyvinyl plastic. Each arm was assigned with A, B and C. A test mouse was carefully located in one arm and let move freely for 8 minutes. Then, the arm which the test mouse entered was recorded. At this time, the ‘enter’ means the case when the mouse tail was completely in. If the mouse entered an arm where it had already visited, the case was also recorded. If the mouse entered three different arms one by one (actual alternation), one point was given. Alternation behavior was defined by that the mouse entered three different arms stepwise, which was calculated by the following equation. […] [alternation behavior (%)=actual alternation/*maximum alternation×100]
*maximum alternation: total entries−2

Chain of CLK4 (Q9HAZ1 whole entry): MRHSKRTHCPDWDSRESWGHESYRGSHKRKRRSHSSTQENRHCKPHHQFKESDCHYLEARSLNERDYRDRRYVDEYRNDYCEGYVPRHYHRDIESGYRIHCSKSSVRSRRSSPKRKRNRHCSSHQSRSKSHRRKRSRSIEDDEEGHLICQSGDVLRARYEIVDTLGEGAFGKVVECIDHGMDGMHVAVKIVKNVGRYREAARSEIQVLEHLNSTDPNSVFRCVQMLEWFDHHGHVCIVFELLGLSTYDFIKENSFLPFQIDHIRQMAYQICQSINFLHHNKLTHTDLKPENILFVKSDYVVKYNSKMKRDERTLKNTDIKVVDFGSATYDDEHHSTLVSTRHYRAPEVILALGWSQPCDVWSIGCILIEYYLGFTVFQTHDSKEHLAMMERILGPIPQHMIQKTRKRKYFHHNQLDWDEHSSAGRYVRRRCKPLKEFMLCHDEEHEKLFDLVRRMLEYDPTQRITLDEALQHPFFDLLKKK
Chain of CSNK1E (P49674 whole entry): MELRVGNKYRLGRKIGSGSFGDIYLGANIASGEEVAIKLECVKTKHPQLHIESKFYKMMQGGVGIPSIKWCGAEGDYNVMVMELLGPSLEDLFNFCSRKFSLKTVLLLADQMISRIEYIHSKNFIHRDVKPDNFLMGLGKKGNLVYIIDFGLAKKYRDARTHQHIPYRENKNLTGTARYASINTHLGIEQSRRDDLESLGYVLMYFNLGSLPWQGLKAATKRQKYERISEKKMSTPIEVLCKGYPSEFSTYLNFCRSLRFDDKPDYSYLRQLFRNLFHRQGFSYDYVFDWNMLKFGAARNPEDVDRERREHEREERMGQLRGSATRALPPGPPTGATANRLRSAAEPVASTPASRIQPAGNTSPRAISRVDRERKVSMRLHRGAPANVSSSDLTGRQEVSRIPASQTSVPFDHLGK
Chain of GSK3B (P49841 whole entry): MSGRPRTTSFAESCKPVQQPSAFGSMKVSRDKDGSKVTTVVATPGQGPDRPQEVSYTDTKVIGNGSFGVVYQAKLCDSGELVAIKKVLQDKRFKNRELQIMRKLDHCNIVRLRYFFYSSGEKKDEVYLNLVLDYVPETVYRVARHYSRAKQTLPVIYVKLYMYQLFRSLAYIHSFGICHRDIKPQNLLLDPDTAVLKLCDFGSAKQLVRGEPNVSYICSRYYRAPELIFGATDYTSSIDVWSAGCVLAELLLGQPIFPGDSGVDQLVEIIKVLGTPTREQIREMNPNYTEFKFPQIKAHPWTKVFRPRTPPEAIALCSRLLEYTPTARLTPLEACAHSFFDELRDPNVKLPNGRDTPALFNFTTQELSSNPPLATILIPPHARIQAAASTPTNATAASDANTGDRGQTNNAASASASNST
Chain of CDK5 (Q00535 whole entry): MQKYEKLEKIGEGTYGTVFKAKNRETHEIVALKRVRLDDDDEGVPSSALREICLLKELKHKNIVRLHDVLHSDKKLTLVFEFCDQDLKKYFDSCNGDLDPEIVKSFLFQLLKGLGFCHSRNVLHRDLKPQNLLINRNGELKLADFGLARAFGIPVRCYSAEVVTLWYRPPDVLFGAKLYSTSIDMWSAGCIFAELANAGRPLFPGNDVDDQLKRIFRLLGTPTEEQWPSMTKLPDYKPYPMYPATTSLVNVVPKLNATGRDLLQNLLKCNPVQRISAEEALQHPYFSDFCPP
Chain of CLK3 (P49761 whole entry): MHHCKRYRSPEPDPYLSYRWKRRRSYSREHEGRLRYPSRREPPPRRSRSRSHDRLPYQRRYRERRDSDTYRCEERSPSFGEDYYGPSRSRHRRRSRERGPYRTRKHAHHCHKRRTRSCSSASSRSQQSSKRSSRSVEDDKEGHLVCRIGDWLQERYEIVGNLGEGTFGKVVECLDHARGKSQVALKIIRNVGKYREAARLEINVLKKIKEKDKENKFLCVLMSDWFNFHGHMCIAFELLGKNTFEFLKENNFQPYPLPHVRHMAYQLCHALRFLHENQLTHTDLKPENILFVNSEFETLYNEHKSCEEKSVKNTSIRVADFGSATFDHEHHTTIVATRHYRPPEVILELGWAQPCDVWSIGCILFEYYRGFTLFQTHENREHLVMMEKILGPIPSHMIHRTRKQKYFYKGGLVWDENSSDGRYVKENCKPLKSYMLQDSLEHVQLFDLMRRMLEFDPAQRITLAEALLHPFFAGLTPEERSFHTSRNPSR
Chain of DYRK1B (Q9Y463 whole entry): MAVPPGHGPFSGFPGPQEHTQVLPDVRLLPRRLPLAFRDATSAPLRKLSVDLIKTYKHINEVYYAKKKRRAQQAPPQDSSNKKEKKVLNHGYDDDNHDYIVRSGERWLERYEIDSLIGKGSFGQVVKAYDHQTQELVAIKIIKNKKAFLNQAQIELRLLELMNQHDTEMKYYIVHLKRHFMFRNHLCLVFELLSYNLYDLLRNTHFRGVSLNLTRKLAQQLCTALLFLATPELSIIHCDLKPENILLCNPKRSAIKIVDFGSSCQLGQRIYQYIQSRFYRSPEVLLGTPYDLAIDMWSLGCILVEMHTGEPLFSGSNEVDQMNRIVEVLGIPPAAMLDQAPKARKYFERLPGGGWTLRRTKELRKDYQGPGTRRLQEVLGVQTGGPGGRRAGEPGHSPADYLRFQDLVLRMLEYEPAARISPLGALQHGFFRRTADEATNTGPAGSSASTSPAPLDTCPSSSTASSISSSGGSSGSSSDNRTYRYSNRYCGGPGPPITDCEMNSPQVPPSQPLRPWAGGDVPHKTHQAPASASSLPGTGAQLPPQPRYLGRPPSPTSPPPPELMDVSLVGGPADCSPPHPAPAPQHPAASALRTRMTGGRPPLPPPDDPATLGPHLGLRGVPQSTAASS

With `CCNc1cc(Nc2ccc(C(=O)N3CCC(N4CCOCC4)CC3)cc2OC)nc2[nH]cc(C#N)c12` [Example 18, 4-(ethylamino)-6-((2-methoxy-4-(4-morpholinopiperidine-1-carbonyl)phenyl)amino)-1H-pyrrolo[2,3-b]pyridine-3-carbonitrile], the remaining binding at 1 µM at CDK5 was 100%; on CSNK1E it was 0.6%; at CLK4, 4%; at GSK3B, 97%; on CLK3, 73%; at DYRK1B, 4%.
Turning to `CCNc1cc(Nc2ccc(C(=O)N3CCC(N4CCOCC4)CC3)cc2OC)nc2[nH]cc(C(F)(F)F)c12` [Example 57, (4-((4-(ethylamino)-3-(trifluoromethyl)-1H-pyrrolo[2,3-b]pyridin-6-yl)amino)-3-methoxyphenyl) (4-morpholinopiperidin-1-yl)methanone], in the test with 5× FAD mice [1], the “immunoreactivity of AT180 in the cerebral cortex region” value is given as “no significant change” and the “immunoreactivity of AT180 in the hippocampus” value is recorded as “significantly reduced”. The “increase of the cell number” value in the test on mouse pancreatic β-cell (Ki-67/insulin double-stained cells, 72 hours) was found to be 5 times. The cell proliferation result in the test on mouse pancreatic β-cell (mouse pancreatic β-cells cultured with compound for 72 hours) is given as “active”. Further, in the test with 5× FAD mice [2], the “long term memory (preference for the new object)” value was “improved long term memory”. Moreover, the “short term memory (Y-maze alternation behavior)” value in the test with 5× FAD mice [3] is reported as “improved short term memory”.
